The results in this text go back to publication PMC8372184 (Synlett : accounts and rapid communications in synthetic …, 2021).

In one experiment the target is T1, KDO1 (Catenulispora acidiphila, UniProt C7QJ42).
T1 sequence (C7QJ42 1-358): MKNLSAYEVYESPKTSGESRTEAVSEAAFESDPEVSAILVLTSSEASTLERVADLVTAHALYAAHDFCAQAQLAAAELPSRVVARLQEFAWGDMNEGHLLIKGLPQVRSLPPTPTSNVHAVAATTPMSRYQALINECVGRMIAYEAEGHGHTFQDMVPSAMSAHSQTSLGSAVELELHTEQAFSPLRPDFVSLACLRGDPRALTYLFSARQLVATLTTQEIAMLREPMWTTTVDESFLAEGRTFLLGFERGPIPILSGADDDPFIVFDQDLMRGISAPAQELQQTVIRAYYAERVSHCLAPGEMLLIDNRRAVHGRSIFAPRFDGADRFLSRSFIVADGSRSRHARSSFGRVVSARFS
The experiment can be described thus: gram-scale 3-hydroxylation in E. coli lysate. Type of experiment: biochemical. As to conditions: alpha-ketoglutarate, Fe(II).

For a further experiment, the target named is T2, GlbB (Caldimonas brevitalea, UniProt A8KCI8).
T2 sequence (A8KCI8 1-286): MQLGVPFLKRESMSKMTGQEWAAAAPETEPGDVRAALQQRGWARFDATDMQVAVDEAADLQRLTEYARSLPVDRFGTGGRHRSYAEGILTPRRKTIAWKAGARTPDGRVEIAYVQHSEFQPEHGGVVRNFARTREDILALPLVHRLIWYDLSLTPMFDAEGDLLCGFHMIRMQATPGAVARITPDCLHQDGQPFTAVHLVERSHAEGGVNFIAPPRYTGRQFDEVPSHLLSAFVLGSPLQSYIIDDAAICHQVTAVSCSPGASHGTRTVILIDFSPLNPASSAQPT
Nature of the experiment: 4-hydroxylation. Type of experiment: biochemical. As to conditions: alpha-ketoglutarate, Fe(II).

For another experiment, the target named is T3, GriE (Streptomyces muensis, UniProt A0A0E3URV8).
T3 sequence (A0A0E3URV8 1-270): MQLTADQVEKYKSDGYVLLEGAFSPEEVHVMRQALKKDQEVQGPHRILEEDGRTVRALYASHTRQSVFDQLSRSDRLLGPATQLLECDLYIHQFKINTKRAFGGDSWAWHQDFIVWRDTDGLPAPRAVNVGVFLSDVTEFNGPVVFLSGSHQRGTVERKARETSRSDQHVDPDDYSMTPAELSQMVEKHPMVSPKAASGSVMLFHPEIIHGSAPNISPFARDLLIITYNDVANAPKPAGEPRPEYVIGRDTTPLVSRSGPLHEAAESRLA
The experiment can be described thus: LCMS of C5 hydroxylation. The class given is biochemical. As to conditions: alpha-ketoglutarate, Fe(II), ascorbate.

For a further experiment, the target named is T4, GetI (Streptomyces sp. L-49973, UniProt E0WFM2).
T4 sequence (E0WFM2 1-345): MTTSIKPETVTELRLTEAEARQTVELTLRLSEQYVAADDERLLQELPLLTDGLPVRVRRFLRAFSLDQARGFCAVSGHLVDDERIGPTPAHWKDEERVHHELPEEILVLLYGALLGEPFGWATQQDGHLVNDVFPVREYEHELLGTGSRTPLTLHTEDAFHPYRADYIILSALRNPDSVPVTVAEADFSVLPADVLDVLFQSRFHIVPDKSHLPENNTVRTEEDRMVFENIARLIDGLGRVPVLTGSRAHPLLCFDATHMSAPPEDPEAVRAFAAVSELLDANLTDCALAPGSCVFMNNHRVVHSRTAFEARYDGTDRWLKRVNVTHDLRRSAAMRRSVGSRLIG
Nature of the experiment: preparative-scale 4-hydroxylation. Type of experiment: cell-based. As to conditions: alpha-ketoglutarate, Fe(II).

Experiment [1] concerns the target T5, GetF (Streptomyces sp. L-49973, UniProt E0WFM0).
T5 sequence (E0WFM0 1-363): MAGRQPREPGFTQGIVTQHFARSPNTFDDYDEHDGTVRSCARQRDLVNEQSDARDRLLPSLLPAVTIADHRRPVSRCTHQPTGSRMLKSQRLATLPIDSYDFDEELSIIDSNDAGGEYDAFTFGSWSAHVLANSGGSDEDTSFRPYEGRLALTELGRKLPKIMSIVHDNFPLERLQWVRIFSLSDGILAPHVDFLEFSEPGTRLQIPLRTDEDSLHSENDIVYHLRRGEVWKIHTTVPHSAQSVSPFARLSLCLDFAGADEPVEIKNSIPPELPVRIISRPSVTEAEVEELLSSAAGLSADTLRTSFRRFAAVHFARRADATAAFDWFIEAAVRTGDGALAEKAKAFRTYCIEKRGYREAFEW
Nature of the experiment: preparative-scale hydroxylation. Type of experiment: cell-based. The settings on record: alpha-ketoglutarate, Fe(II).

For experiment [2], the target named is T5, GetF. The experiment can be described thus: C3 hydroxylation, product isolated after Boc protection. The class given is cell-based. The settings on record: alpha-ketoglutarate, Fe(II).

Take `NCCCC[C@H](N)C(=O)O` [L-lysine]: the “gram-scale 3-hydroxylation in E. coli lysate” value on KDO1 is “optimizing the biocatalytic hydroxylation with lysates of E. coli expressing KDO1”. Further, at GlbB, the 4-hydroxylation result is given as “GlbB was shown to be a highly efficient enzyme capable of hydroxylating L-lysine”. In the case of `CC(C)C[C@H](N)C(=O)O` [L-leucine], the “LCMS of C5 hydroxylation” value at GriE is “GriE revealed a highly active enzyme that is capable of hydroxylating L-leucine”.

In the case of `NC(=O)NCCC[C@H](N)C(=O)O` [L-Cit], the “preparative-scale 4-hydroxylation” value on GetI is “Biocatalytic hydroxylation of L-Pip and L-Cit was performed on preparative scale with GetF and GetI”.

On to `O=C(O)[C@@H]1CCCCN1` [L-Pip], for which the preparative-scale hydroxylation result at GetF [1] is “Biocatalytic hydroxylation of L-Pip and L-Cit was performed on preparative scale with GetF and GetI”. `C[C@H]1CCN[C@@H]1C(=O)O` [compound 15, proline derivative 15]: on GetF [2], the “C3 hydroxylation, product isolated after Boc protection” value is recorded as “The final C3 hydroxylation was performed with GetF”.
